Where no end group is shown, it is not given here.
Key:
NOD mice = experiment: Pilot non obese diabetic (NOD) mouse study with lysophylline (LSF); format: in vivo; conditions: one NOD mouse per group; peptides given plus LSF; not statistically significant study; FIG. 11
From the text: The non obese diabetic (NOD) model is used as a model for type 1 autoimmune diabetes. This form of diabetes is the most challenging in that the underlying damage to the pancreas and its insulin production is due to autoimmune attack. Therefore, in order to show definitive islet neogenesis in this form of diabetes an immune tolerance agent must be used in combination with HIP. The NOD mouse model is extremely difficult model because many of the mice may only transiently become diabetic and go into remission, whereas others develop severe diabetes. The timing intervention in this transgenic mouse model is difficult to determine.
In a preliminary study that utilizing the immune tolerance agent, lysophylline (LSF) under development, three NOD mice that became diabetic and were randomized to placebo plus LSF, HIP2 plus LSF and HIP2B plus LSF.

[1] = system: streptozotcin-treated mice rendered diabetic; experiment: Repeated study in streptozotocin-treated diabetic mice with HIP2 and Optimized HIP2B; format: in vivo, mouse; conditions: for Total Islet Mass (μm2) / Total Islets: Table 3; for Total Islet Mass (% increase) / Total Islets (% increase): Table 3, vs placebo
From the text: Differences between the two groups of HIP2B and placebo were statistically significant for both an increase in total islet mass (p=0.040) and total islet numbers (p=0.032), with the HIP2B group indicating larger values for both islet mass (M=416714.67, SD=121,389.01) and islet number (M=94, SD=32.74) than for the placebo group (islet mass: M=127410.67, SD=96930.78, islet number: M=31.67, SD=15.28).

PANC-1 cells = experiment: Impact of HIP and Optimized HIP peptides on PANC-1 cell morphology; format: cell-based, human; conditions: treated four days; for cell morphology changes through 7 days: pictures days 1, 2, 3, 5, 7 at 200×, FIG. 9B
Description: The cells were treated with HIP and Optimized HIP peptides for four days. […] FIG. 9B show the progression of the cell morphology changes through 7 days, with the control on the top, HIP2 in the middle, and HIP2B on the bottom. Pictures were taken on days 1, 2, 3, 5, and 7 at 200× magnification.

[2] = system: ductal fraction of human pancreatic cells; experiment: HIP2B activity in human pancreatic ductal tissue culture (CK19, nuclei and insulin staining); format: cell-based; conditions: cultured 10 days in collagen matrix, treated every other day; FIG. 10
Description: The ductal fraction of human pancreatic cells were cultured for 10 days in a collagen matrix and then treated every other day with HIP2B. Cells were labeled by double antibody staining for CK 19, a marker for ductal tissue, and DAP1 staining to show nuclei and insulin.

HIP receptor/EXTL3 = biological target: T1, HIP receptor/EXTL3 (Homo sapiens, UniProt O43909); experiment: Cy3 immunofluorescence of HIP receptor/EXTL3 translocation in PANC-1 cells; format: cell-based; conditions: for HIP receptor/EXTL3 trafficking from cytoplasmic membrane to nucleus: trypsin and serum free medium, FIG. 12
T1 construct: It was observed that EXTL3 is expressed in PANC-1 cells; endogenous in cells; host or cells: PANC-1 (human pancreatic ductal/epithelioid cell line)
T1 sequence (O43909 1-919): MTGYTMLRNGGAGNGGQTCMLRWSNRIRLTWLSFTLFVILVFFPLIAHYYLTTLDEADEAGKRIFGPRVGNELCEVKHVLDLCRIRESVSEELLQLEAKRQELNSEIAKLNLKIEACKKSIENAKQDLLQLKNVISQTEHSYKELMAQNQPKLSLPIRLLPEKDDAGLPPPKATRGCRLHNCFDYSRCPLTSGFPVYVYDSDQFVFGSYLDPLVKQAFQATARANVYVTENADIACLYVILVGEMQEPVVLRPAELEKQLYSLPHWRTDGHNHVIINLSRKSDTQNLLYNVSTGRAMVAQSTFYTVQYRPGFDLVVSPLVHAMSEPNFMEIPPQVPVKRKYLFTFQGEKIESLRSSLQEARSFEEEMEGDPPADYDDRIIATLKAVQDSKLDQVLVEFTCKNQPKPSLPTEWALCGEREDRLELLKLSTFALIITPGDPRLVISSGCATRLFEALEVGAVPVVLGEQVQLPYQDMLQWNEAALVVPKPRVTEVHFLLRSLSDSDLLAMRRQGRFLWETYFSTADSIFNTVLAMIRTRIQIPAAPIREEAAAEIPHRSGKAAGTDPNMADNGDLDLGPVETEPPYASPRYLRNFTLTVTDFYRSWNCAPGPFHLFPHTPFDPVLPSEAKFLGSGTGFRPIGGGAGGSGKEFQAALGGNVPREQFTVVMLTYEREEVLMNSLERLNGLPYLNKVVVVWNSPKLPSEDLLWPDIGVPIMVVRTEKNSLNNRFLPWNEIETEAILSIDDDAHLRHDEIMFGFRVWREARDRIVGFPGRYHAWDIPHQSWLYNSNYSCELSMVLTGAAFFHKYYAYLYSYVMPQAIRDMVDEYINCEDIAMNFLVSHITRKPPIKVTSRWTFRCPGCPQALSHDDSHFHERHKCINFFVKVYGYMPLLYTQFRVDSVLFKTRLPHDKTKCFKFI
Description: Impact of HIP2B and HIP2 on HIP Receptor. To provide evidence that EXTL3 interacts with HIP, an experiment was conducted where human ductal cell line PANG-1 was used as a source of EXTL3. Using an antibody directed against EXTL3, PANC-1 cells were immunostained after being grown under conditions that differentiate these cells into islet-like cells. PANC-1 cells were grown in a standard growth medium containing 10% fetal bovine serum, or in a serum free medium (SFM) or SFM containing HIP.
The receptor for Human ProIslet Peptide was labeled using a double antibody method in a stable human pancreatic cell line. The first antibody was a rabbit polyclonal and the second was a goat-anti-rabbit labeled with Cy3 fluorescent dye.
These cells grow normally in serum free media and when treated with trypsin, are destabilized and made competent to undergo developmental changes. Cells were cultured in serum free media (SFM) with and without HIP, and in serum free media with trypsin (TSFM).
When treated with HIP under stable conditions, no changes result. When treated with HIP under developmentally competent conditions, the labeled receptor responds to the presence of HIP by being encapsulated by the cytoplasmic membrane and moving to the nuclear membrane where the signals for differentiation are received.
HIP stimulates the receptor membrane bound protein to be engulfed by the cytoplasmic membrane and transported to the nuclear membrane under adjusted exposure.

EXTL3 = biological target: T2, EXTL3 (Homo sapiens, UniProt O43909); experiment: Western blot of EXTL3 in cytosolic and nuclear fractions of PANC-1 cells; format: cell-based; conditions: PANC-1 cells in SFM; FIG. 14; without HIP nuclear EXTL3 observed at 6 hours
T2 construct: It was observed that EXTL3 is expressed in PANC-1 cells; endogenous in cells; host or cells: PANC-1 (human pancreatic ductal/epithelioid cell line)
T2 sequence (O43909 1-919): T1 sequence (O43909 1-919)
Description: Western blot and immunofluorescence analyses of EXTL3 localization were performed in human PANC-1 cells grown under conditions that differentiate these cells into islet-like cells. EXTL3 is predominantly located on the external surface of the cytoplasmic membrane and its structure includes a single transmembrane region located inside of the cytoplasmic membrane. PANC-1 cells were grown in a standard growth medium or in a serum free medium (SFM) containing HIP.

[3] = system: human pancreatic ductal tissue; experiment: Insulin levels by radioimmunoassay in human pancreatic ductal fraction cultures; format: cell-based; conditions: human ductal tissue cultured with peptide; treated day 10 and 12, lysed after 1 week; vs negative control
Description: In Vitro Proof of Concept of HIP Activity. Human pancreatic islet and ductal fractions were cultured over 10 days and then treated in a blinded study. Radioimmunoassay methods were used to measure insulin levels in the human pancreatic cultures treated with a scrambled peptide serving as a negative control, HIP3, HIP1, HIP2 and hamster-derived INGAP serving as a positive control. Peptides were synthesized (95% pure, research grade).
Duplicate cultures were treated in both ductal and islet fractions of human pancreatic tissue on day 10 and day 12 and then lysed for detection of insulin content after 1 week of treatment HIP peptides, control and INGAP. During 10-day culture, the insulin production goes down and then after treatment with HIP peptides, insulin is produced again.
The ductal and islet tissue were separated using the Ricordi method. Neither ductal cell nor islet culture was completely homogeneous in nature. […] The studies were repeated with similar findings shown in the following chart, with as much as a four-fold increase in insulin levels by radioimmunoassay among human ductal tissue cultured with HIP2.
The ductal fraction graph as shown in FIG. 2 depicts the insulin levels on the y axis as measured by radioimmunoassay after incubation in culture with human pancreatic ductal tissue. […]

[4] = system: mice rendered diabetic with streptozotocin; experiment: Streptozocin diabetic mouse study of HIP3, HIP1, HIP2 and hamster INGAP; format: in vivo; conditions: for total islet numbers vs placebo (significance): FIG. 6, p=0.022; for total islet mass vs placebo (significance): FIG. 6, p=0.05; for Total Islet Mass (μm2) / Total Islets: Table 2, initial study; for Total Islets: histology of pancreata; for Total Islet Mass (% increase) / Total Islets (% increase): Table 2, vs placebo; for islet area: placebo 142,394, p=0.05, FIG. 6
Description: In Vivo Studies. HIP3, HIP1, HIP2 and hamster INGAP have been the subject of in vivo studies in mice. […] The subject number was selected to yield a sufficient number of diabetic animals for the study and animals were randomly assigned to study groups. All animals were dosed via intraperitoneal injections twice daily (am and pm) for 28 consecutive days. The timing of dose administration remained consistent (±2 hours) during the dosing phase.
Mice were injected intraperitoneally with streptozocin at 40 mg/kg in citrate buffer, pH 4.5, on 5 consecutive days in an attempt to render them diabetic. […] If the blood glucose level in any animal rose to above 400 mg/dL, the animal was treated with insulin. Every 3 days, at the same time each day, a nick was made on the tail and a drop of blood was collected. Glucose measurements were determined using a glucose meter. Group assignments and dose levels were as follows in Table 1:
Study endpoints included the following: changes in glucose; changes in insulin requirements; and histology of post-mortem pancreata.

[5] = 250 μg intraperitoneal twice daily, 28 days

Row | Compound | glucose levels during the study (NOD mice) | Total Islet Mass (μm2) [1] | Total Islets [1] | Total Islet Mass (% increase) [1] | Total Islets (% increase) [1] | cell morphology changes through 7 days (PANC-1 cells) | HIP receptor/EXTL3 trafficking from cytoplasmic membrane to nucleus (HIP receptor/EXTL3) | EXTL3 translocation by Western blot (EXTL3) | lower mean glucose vs control [4, 5] | total islet numbers vs placebo (significance) [4] | total islet mass vs placebo (significance) [4] | Total Islet Mass (μm2) [4] | Total Islets [4] | Total Islet Mass (% increase) [4] | Total Islets (% increase) [4] | islet area [4] | further results
1 | C[C@@H](O)CCCCn1c(=O)c2c(ncn2C)n(C)c1=O [LSF, lysophylline, reference compound] | gradual elevations in glucose |  |  |  |  |  |  |  |  |  |  |  |  |  |  |  | 
2 | Ac-Ile-Gly-Leu-His-Asp-Pro-Thr-Gln-Gly-Thr-Glu-Pro-Asn-Gly-NH2 (Ac-IGLHDPTQGTEPNG-NH2) [HIP2B] | steadily improved glucose levels | 416,715 μm2 | 94 | 398% | 168% | deviate significantly from their initial appearance | stimulated traffic from the HIP receptor on the cytoplasmic membrane into the nucleus | enhancing EXTL3 translocation from the cytoplasmic membrane to the nucleus |  |  |  |  |  |  |  |  | rise in the total number of islets compared to placebo-treated mice ([1]; fold): three-fold; islet number (M) ([1]; mean, SD=32.74, placebo M=31.67, p=0.032): 94; islet mass (M) ([1]; mean, SD=121,389.01, placebo M=127410.67, p=0.040): 416714.67; islet size vs placebo-treated mice ([1]; not statistically significant (t=0.708, p=0.518)): normally sized islets were generated; morphological differences vs control on day 7 (PANC-1 cells; 200×, FIG. 9A): histologically more differentiated cells; insulin expression after treatment [2]: induced insulin expression in otherwise insulin negative cells; interaction with receptor/EXTL3 and trafficking to nucleus, compared with HIP2 (HIP receptor/EXTL3): as effective as HIP2
3 | IGLHDPTQGTEPNG [HIP2] | steadily improved glucose levels | 202,955 μm2 | 65 | 143% | 86% | deviate significantly from their initial appearance | stimulated traffic from the HIP receptor on the cytoplasmic membrane into the nucleus | enhancing EXTL3 translocation from the cytoplasmic membrane to the nucleus | 29.4% | significantly increased total islet numbers | significantly greater total islet mass | 2161782 μm2 | 454 | 153% | 62% | 360,297 μm(2) | increase in insulin levels by radioimmunoassay [3]: four-fold; day by which mice were completely insulin-free ([4]; 250 μg intraperitoneal twice daily, 28 days, FIG. 4): ≤ 21 days
4 | IGLHDPTQGTEPNGE [HIP3] |  |  |  |  |  |  |  |  | 57.3% | significantly increased total islet numbers | significantly greater total islet mass | 1703513 μm2 | 410 | 99% | 46% | 283,918 μm(2) | 
5 | WIGLHDPTQGTEPNG [HIP1] |  |  |  |  |  |  |  |  | 14.7% |  |  |  |  |  |  |  | 
